# Experimental data taken from patent publication US20260356803A1, “Nicotinamide derivatives” (Board of Regents, The University of Texas System, priority 2024, published 2026).
# Tested on: iHCT116 cells
# Assay: Forward genetics resistance selection (IAA-inducible mutagenesis)
# Type: cell-based
# Excerpt: Second, we screened for resistance to 9 in iHCT116 cells, a system that uses inducible mutagenesis and forward genetics to find compound-resistant mutations and thus can reveal both loss of function and gain of function alleles that suppress activity. The iHCT116 system is a barcoded cell line in which we temporally control mutagenesis by the addition of indole acetic acid (IAA) mediated degradation of the mismatch repair protein MLH1.^12 MLN4924 is a small molecule toxin that we use as a positive control to verify that IAA treatment leads to increased mutations. By degrading MLH1 and increasing the overall mutation rate, IAA treatment increases the frequency of UBA3 mutations, leading to a higher rate of MLN4924 resistance. […] Having previously established a relationship between either NMNAT1 levels or NAMPT activity and compound resistance, we analyzed the levels of both enzymes in multiple resistant clones that harbored unique barcode sequences. […] To test whether reduced NMNAT1 levels in these clones contributed to resistance, we ectopically expressed NMNAT1 in either the parental cells or a representative resistant clone with low NMNAT1 expression.
# [1] = resistant clones with unique barcodes
compound,measurement,setting,value
"O=C(Nc1cccs1)c1cccnc1 [Compound 9, N-(Thiophen-2-yl)nicotinamide]",NAMPT levels in 9-resistant clones,[1],the same in all clones
same,NMNAT1 protein levels downregulated in 9-resistant clones,[1],five out of eight clones
same,difference in number of surviving clones Mut-off vs Mut-on,three lethal selection concentrations of 9,did not observe a substantial difference
